These results are taken from patent US4851521A, “Esters of hyaluronic acid” (priority 1985, dated 1989).

Consider “benzylester of hyaluronic acid (HY) [HYAFF11]”, for which the “solubility in DMSO” value is 200 mg/mL.
